Our source for the inhibition values is patent publication US7741479B2, “Urea inhibitors of MAP kinases” (Locus Pharmaceuticals, Inc., priority 2004, dated 2010).

The assay concerns the target T1, p38 (Homo sapiens, UniProt Q16539).
T1 construct: made in house
Briefly: Protein Kinase Assay (33P incorporation from γ-[33P]ATP into GST-ATF-2 substrate). In kind it is biochemical. Conditions: for inhibition at 0.5 µM: same procedure at 0.5 μM; for inhibition at 3 µM: compound at 3 μM, read-out: Protein Kinase (% Inhibition at 3 μM); for inhibition at 10 µM: compound at 10 μM. Here is the method:
Human non-activated p38 kinase (MW=43 kDa) was purified according to the protocol described herein. Chemicals were purchased from Calbiochem. Fluorescence characterizations were conducted using a Cary Eclipse (Varian Analytical Instruments, Walnut Creek, Calif.). Research-grade CM5 sensor chips and coupling reagents (N-ethyl-N′-dimethylaminopropylcarbodiimide (EDC) N-hydroxysuccinimide (NHS), and 1 M ethanolamine HCl, pH 8.5) were purchased from Biacore AB (Uppsala, Sweden). The biosensor analyses were conducted using a Biacore 3000 SPR instrument. The kinetic analyses were carried on a Molecular Devices spectrophotometer (Molecular Devices Corporation, CA, USA).
Protein Kinase Assay. The protein kinase activity of p38 was determined by measuring the incorporation of ^33P from γ-[^33P]ATP into the GST-ATF-2 substrate, amino acids 19-96 (Upstate, NY USA). […] Compounds were preincubated with 10 nM p38 for 20 min at 30° C.; the reactions were initiated by the addition of GST-ATF2 and ATP and incubated for 70 min at 30° C. before being stopped by the addition of 10 μL of 600 mM phosphoric acid. The phosphorylated substrate was captured on phosphocellulose 96-well plate (Millipore MAPHNOB 10), washed with 100 mM phosphoric acid, and counted in a BeckmenCoulter LS6500 liquid scintillation counter.

T1 sequence (Q16539 whole entry): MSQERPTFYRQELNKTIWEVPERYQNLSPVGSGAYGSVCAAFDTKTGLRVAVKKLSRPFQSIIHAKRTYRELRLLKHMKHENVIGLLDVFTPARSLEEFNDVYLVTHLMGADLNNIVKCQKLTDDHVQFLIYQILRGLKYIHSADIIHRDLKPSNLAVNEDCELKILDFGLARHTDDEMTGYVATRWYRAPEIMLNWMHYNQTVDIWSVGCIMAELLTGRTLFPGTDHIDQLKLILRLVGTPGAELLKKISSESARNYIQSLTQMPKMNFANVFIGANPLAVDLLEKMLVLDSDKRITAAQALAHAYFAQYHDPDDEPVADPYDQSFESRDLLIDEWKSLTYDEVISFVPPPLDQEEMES

For the compound `CC(C)(C)c1cc(C(=O)NCc2cccnc2)c(NC(=O)Nc2cccc3ccccc23)s1` [Example 131, 5-tert-Butyl-2-(3-naphthalen-1-yl-ureido)thiophene-3-carboxylic acid (pyridin-3-ylmethyl)amide], the inhibition – broadly, the share of the control response that was lost under treatment – at 0.5 µM lay in the range of 76 to 100%.

Consider `COc1ccc(NC(=O)Nc2sc(C(C)(C)C)cc2C(=O)N2CCNS(=O)(=O)CC2)cc1Cl` [Example 95, 1-[5-tert-Butyl-3-(1,1-dioxo-1λ^6-[1,2,5]thiadiazepane-5-carbonyl)thiophen-2-yl]-3-(3-chloro-4-methoxyphenyl)urea], for which the inhibition at 3 µM is 76 to 100%.

Take `CC(C)(C)c1cc(C(=O)N2CCS(=O)(=O)CC2)c(NC(=O)NC(C)(C)c2ccccc2)s1` [Example 66, 1-[5-tert-butyl-3-(1,1-dioxo-1λ^6-thiomorpholine-4-carbonyl)thiophen-2-yl]-3-(1-methyl-1-phenylethyl)urea]: the inhibition at 3 µM was in the range of 0 to 25%.

`CC(C)(C)c1cc(CN2CCS(=O)(=O)CC2)c(NC(=O)Nc2ccc(Cl)cc2)s1` [Example 3, 1-[5-tert-butyl-3-(1,1-dioxo-1λ^6-thiomorpholin-4-ylmethyl)thiophen-2-yl]-3-(4-chlorophenyl)urea] had an inhibition at 10 µM of 76 to 100%.

For `Cc1cccc(NC(=O)Nc2sc(C(C)(C)C)cc2C(=O)N2CCS(=O)(=O)CC2)c1` [Example 67, 1-[5-tert-butyl-3-(1,1-dioxo-1λ^6-thiomorpholine-4-carbonyl)thiophen-2-yl]-3-(3-tolyl)urea], the inhibition at 3 µM was 76 to 100%.

As for `CC(C)(C)c1cc(C(=O)N2CCNC(=O)CC2)c(NC(=O)Nc2ccc3ccccc3c2)s1` [Example 44, 1-[5-tert-butyl-3-(5-oxo[1,4]diazepane-1-carbonyl)thiophen-2-yl]-3-naphthalen-2-ylurea], the inhibition at 10 µM was 76 to 100%.

The compound `CC(C)(C)c1cc(NC(=O)Nc2cccc3ccccc23)n(C(=O)N2CCS(=O)(=O)CC2)n1` [Example 21, 1-[5-tert-butyl-2-(1,1-dioxo-1λ^6-thiomorpholine-4-carbonyl)-2H-pyrazol-3-yl]-3-naphthalen-1-ylurea] yielded an inhibition at 10 µM of 76 to 100%.

Regarding `CC(C)(C)c1cc(C(=O)N2CCS(=O)(=O)CC2)c(NC(=O)Nc2ccc(Cl)c(Cl)c2)s1` [Example 63, 1-[5-tert-butyl-3-(1,1-dioxo-1λ^6-thiomorpholine-4-carbonyl)thiophen-2-yl]-3-(3,4-dichlorophenyl)urea], the inhibition at 3 µM is 76 to 100%.

In the case of `CC1C(=O)NCCN1C(=O)c1cc(C(C)(C)C)sc1NC(=O)Nc1cccc2ccccc12` (stereo not shown) [Example 87, 1-[5-tert-butyl-3-(2-methyl-3-oxopiperazine-1-carbonyl)thiophen-2-yl]-3-naphthalen-1-ylurea], the inhibition at 3 µM was in the range of 76 to 100%.

For `CC(C)(C)c1cc(NC(=O)Nc2ccc3ccccc3c2)n(C(=O)N2CCS(=O)(=O)CC2)n1` [Example 23, 1-[5-tert-butyl-2-(1,1-dioxo-1λ^6-thiomorpholine-4-carbonyl)-2H-pyrazol-3-yl]-3-naphthalen-2-ylurea], the inhibition at 10 µM was in the range of 26 to 50%.

The compound `CC(C)(C)c1cc(C(=O)N2CCNC(=O)C2(C)C)c(NC(=O)Nc2cccc(Cl)c2Cl)s1` [Example 136, 1-[5-tert-Butyl-3-(2,2-dimethyl-3-oxo-piperazine-1-carbonyl)thiophen-2-yl]-3-(2,3-dichlorophenyl)urea] showed an inhibition at 0.5 µM of 76 to 100%.

Compound `CC(C)(C)c1cc(C(=O)N2CCS(=O)(=O)CC2)c(NC(=O)Nc2ccc(Oc3ccccc3)cc2)s1` [Example 28, 1-[5-tert-butyl-3-(1,1-dioxo-1λ^6-thiomorpholine-4-carbonyl)thiophen-2-yl]-3-(4-phenoxyphenyl)urea] had an inhibition at 10 µM of 0 to 25%.

For `CC(C)(C)c1cc(C(=O)N2CCNS(=O)(=O)CC2)c(NC(=O)Nc2ccc3c(c2)OCO3)s1` [Example 93, 1-Benzo[1,3]dioxol-5-yl-3-[5-tert-butyl-3-(1,1-dioxo-1λ^6-[1,2,5]thiadiazepane-5-carbonyl)thiophen-2-yl]urea], the inhibition at 3 µM fell in the range of 76 to 100%.
